This note sets out measurements from patent publication US7981883B2, “Substituted spiro-compounds and the use thereof for producing medicaments” (Gruenenthal GmbH, priority 2005, dated 2011).

Holding throughout (assay type): cell-based
Assay [1] concerns the target T1, VR1 (rat) (Rattus norvegicus, UniProt O35433).
T1 construct: from tissue; host or cells: primary cells dissociated from rat dorsal root ganglia
Kind of assay: Functional FLIPR Ca2+ inflow assay on rat-species vanilloid receptor 1 in rat dorsal root ganglia cells. Particulars: against capsaicin (CAP).

The target of assay [2] is T2, VR1 (human) (Homo sapiens, UniProt Q8NER1).
T2 construct: expressed in transfected cells; host or cells: CHO K1 cells (ECACC)
In words: Functional FLIPR Ca2+ inflow assay on VR1 (human), CHO K1 cells stably transfected with the VR1 gene. Particulars: test compound 10 μM; for inhibition at 10 µM / activation at 10 µM: CHO-K1; for inhibition at 10 µM: read-out: VR1 (human) (% inhibition compared to 10 μM CP); for activation at 10 µM: read-out: VR1 (human) (% stimulation compared to 10 μM CP). An excerpt:
II. Functional Testing Carried Out on the Vanilloid Receptor (VR1)
The agonistic or antagonistic effect of the substances to be tested can also be determined on the vanilloid receptor (VR1) using the following assay. According to this assay, the Ca^2+ inflow is quantified through the channel using a Ca^2+-sensitive dye (type Fluo-4, Molecular Probes Europe BV, Leiden, Netherlands) in a fluorescent imaging plate reader (FLIPR, Molecular Devices, Sunnyvale, USA).
Chinese hamster ovary cells (CHO K1 cells, European Collection of Cell Cultures (ECACC) United Kingdom) were stably transfected with the VR1 gene. For functional testing, these cells were plated out on poly-D-lysine-coated black 96 well plates having a clear base (BD Biosciences, Heidelberg, Germany) at a density of 25,000 cells/well. The cells were incubated overnight at 37° C. and 5% CO2 in a culture medium (Ham's F12 nutrient mixture, 10% by volume of FCS (foetal calf serum), 18 μg/ml L-proline). The next day the cells were incubated with Fluo-4 (Fluo-4 2 μM, 0.01% by volume of Pluronic F127, Molecular Probes in HBSS (Hank's buffered saline solution), Gibco Invitrogen GmbH, Karlsruhe, Germany) for 30 minutes at 37° C. Subsequently, the plates were washed three times with HBSS buffer and after further incubation for 15 minutes at room temperature used for Ca^2+ measurement in a FLIPR assay. The Ca^2+-dependent fluorescence was measured before and after the addition of the substances to be tested (λex wavelength=488 nm, λem=540 nm). Quantification was carried out by measuring the highest fluorescence intensity (FC, Fluorescence Counts) over time.
The FLIPR protocol consists of 2 substance additions. First the compounds to be tested (10 μM) were pipetted onto the cells and the Ca^2+ inflow was compared with the control (capsaicin 10 μM) (% activation based on the Ca^2+ signal after the addition of 10 μM capsaicin). After 5 minutes' incubation, 100 nM of capsaicin were administered and the Ca^2+ inflow was also determined.
Desensitising agonists and antagonists led to suppression of the Ca^2+ inflow. The % inhibition was calculated compared to the maximum achievable inhibition with 10 μM of capsaicin.

Assay [3] concerns the target T2, VR1 (human). The assay is described as above. As to conditions: against capsaicin (CAP).
The target in assay [4] is T1, VR1 (rat). In words: Functional FLIPR Ca2+ inflow assay on rat-species vanilloid receptor 1 in rat dorsal root ganglia cells. Particulars: test compound 10 μM; for inhibition at 10 µM: read-out: VR1 (rat) (% inhibition compared to 10 μM CP); for activation at 10 µM: read-out: VR1 (rat) (% stimulation compared to 10 μM CP). The source says:
I. Functional Testing Carried Out on the Vanilloid Receptor 1 (VR1/TRPV1 Receptor)
The agonistic or antagonistic effect of the substances to be tested can be determined on the rat-species vanilloid receptor 1 (VR1/TRPV1) using the following assay. According to this assay, the Ca^2+ inflow is quantified through the receptor channel using a Ca^2+-sensitive dye (type Fluo-4, Molecular Probes Europe BV, Leiden, Netherlands) in a fluorescent imaging plate reader (FLIPR, Molecular Devices, Sunnyvale, USA).
Complete medium: 50 mL HAMS F12 nutrient mixture (Gibco Invitrogen GmbH, Karlsruhe, Germany) with
10% by volume of FCS (foetal calf serum, Gibco Invitrogen GmbH, Karlsruhe, Germany, […]);
2 mM L-glutamine (Sigma, Munich, Germany);
1% by weight of AA solution (antibiotic/antimyotic solution, PAA, Pasching, Austria) and 25 ng/ml NGF medium (2.5 S, Gibco Invitrogen GmbH, Karlsruhe, Germany)
Cell culture plate: Poly-D-lysine-coated, black 96 well plates having a clear base (96 well black/clear plate, BD Biosciences, Heidelberg, Germany) were additionally coated with laminin (Gibco Invitrogen GmbH, Karlsruhe, Germany), the laminin being diluted with PBS (Ca—Mg-free PBS, Gibco Invitrogen GmbH, Karlsruhe, Germany) to a concentration of 100 μg/mL. Aliquots having a laminin concentration of 100 μg/mL were removed and stored at −20° C. The aliquots were diluted with PBS in a ratio of 1:10 to 10 μg/mL laminin and in each case 50 μL of the solution were pipetted into a recess in the cell culture plate. The cell culture plates were incubated for at least two hours at 37° C., the excess solution was removed by suction-filtration and the recesses were each washed twice with PBS. The coated cell culture plates were stored with excess PBS which was not removed until just before the feeding of the cells.
The vertebral column was removed from decapitated rats and placed immediately into cold HBSS buffer (Hank's buffered saline solution, Gibco Invitrogen GmbH, Karlsruhe, Germany), i.e. buffer located in an ice bath, mixed with 1% by volume (percent by volume) of an AA solution (antibiotic/antimyotic solution, PAA, Pasching, Austria). The vertebral column was cut longitudinally and removed together with fasciae from the vertebral canal. Subsequently, the dorsal root ganglia (DRG) were removed and again stored in cold HBSS buffer mixed with 1% by volume of an AA solution. The DRG, from which all blood remnants and spinal nerves had been removed, were transferred in each case to 500 μL of cold type 2 collagenase (PAA, Pasching, Austria) and incubated for 35 minutes at 37° C. After the addition of 2.5% by volume of trypsin (PAA, Pasching, Austria), incubation was continued for 10 minutes at 37° C. After complete incubation, the enzyme solution was carefully pipetted off and 500 μL of complete medium were added to each of the remaining DRG. The DRG were in each case suspended several times, drawn through cannulae No. 1, No. 12 and No. 16 using a syringe and transferred to a 50 mL Falcon tube which was filled up to 15 mL with complete medium. The contents of each Falcon tube was in each case filtered through a 70 μm Falcon filter element and centrifuged for 10 minutes at 1,200 rpm and room temperature. The resulting pellet was in each case taken up in 250 μL of complete medium and the number of cells determined.
The number of cells in the suspension was set to 3×10^5 per mL and 150 μL of this suspension were in each case introduced into a recess in the cell culture plates coated as described hereinbefore. In the incubator the plates were left for two to three days at 37° C., 5% by volume of CO2 and 95% relative humidity. […]

[5] abbreviates: then 100 nM capsaicin after 5 min, relative to maximum inhibition with 10 μM capsaicin.
Setting [6] is: Ca2+ signal relative to 10 μM capsaicin (CP).

Structures are written as SMILES.

T1 sequence (O35433 whole entry): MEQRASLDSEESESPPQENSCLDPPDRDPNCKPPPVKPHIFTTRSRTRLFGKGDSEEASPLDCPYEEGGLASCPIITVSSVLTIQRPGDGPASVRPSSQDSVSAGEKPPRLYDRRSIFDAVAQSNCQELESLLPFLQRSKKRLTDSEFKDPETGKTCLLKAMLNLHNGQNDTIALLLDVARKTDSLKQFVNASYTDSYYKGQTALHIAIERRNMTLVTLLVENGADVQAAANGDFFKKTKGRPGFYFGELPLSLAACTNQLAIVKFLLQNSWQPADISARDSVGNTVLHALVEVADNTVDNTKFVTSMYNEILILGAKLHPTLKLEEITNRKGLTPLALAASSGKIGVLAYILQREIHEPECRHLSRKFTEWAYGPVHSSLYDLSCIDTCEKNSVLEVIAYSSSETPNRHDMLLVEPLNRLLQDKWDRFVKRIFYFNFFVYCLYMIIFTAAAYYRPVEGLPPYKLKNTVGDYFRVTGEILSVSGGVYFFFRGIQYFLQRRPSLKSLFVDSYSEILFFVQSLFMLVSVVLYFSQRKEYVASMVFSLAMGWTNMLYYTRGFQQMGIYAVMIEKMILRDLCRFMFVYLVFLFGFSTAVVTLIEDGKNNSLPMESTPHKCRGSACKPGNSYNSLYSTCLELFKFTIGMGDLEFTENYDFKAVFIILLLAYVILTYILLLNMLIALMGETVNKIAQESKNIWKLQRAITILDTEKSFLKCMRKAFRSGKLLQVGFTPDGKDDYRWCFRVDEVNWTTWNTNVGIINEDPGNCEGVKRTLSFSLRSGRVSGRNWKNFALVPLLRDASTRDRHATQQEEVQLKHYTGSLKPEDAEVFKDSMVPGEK
T2 sequence (Q8NER1 whole entry): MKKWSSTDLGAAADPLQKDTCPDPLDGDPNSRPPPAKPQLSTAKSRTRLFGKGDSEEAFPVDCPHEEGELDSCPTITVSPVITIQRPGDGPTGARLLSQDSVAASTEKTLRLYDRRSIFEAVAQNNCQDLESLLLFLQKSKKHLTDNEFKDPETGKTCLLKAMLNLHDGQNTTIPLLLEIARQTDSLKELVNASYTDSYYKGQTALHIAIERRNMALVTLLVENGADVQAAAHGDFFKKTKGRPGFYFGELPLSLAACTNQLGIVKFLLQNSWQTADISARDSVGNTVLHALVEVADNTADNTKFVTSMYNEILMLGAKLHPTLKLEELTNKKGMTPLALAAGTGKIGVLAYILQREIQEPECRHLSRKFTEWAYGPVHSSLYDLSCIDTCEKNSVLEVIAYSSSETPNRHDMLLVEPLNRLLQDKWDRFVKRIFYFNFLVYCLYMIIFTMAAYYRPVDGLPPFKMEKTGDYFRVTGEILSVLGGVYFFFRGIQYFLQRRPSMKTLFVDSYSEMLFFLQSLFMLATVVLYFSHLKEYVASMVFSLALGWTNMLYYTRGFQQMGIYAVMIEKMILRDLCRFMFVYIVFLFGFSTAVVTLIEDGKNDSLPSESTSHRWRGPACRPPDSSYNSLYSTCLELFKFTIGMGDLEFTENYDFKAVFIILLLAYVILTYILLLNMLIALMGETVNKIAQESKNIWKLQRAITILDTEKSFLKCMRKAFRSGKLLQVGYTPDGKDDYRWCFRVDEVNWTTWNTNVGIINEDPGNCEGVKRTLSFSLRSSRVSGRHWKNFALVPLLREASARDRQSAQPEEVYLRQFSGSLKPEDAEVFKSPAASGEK

Regarding `CC(C)(C)[C@H]1CC[C@@]2(CC1)CC(C(=O)NCc1ccc(NS(C)(=O)=O)c(F)c1)=NO2` [Example 7, cis-8-tert-butyl-1-oxa-2-azaspiro[4.5]dec-2-ene-3-carboxylic acid-3-fluoro-4-methanesulphonylaminobenzylamide], the values for the concentration for half-maximal inhibition (IC50) in assay [1] and in assay [3] were 126 nM and 1240 nM, respectively. For the same compound, the Ki in assay [1] turned out to be 79.7 nM; in assay [3] it was 1990 nM. For the same compound, the inhibition at 10 µM in assay [2] (setting [5]) stood at 92.8%; in assay [4] (setting [5]), 105%. For the same compound, the values for the activation at 10 µM in assay [2] (setting [6]) and in assay [4] (setting [6]) were -0.05% and 0.23%, respectively.

On to `CC(C)(C)[C@H]1CC[C@@]2(CC1)CC(C(=O)N1CCN(c3ncccc3C(F)(F)F)CC1)=NO2` [Example 9, cis-(8-tert-butyl-1-oxa-2-azaspiro[4.5]dec-2-en-3-yl)-[4-(3-trifluoromethylpyridin-2-yl)piperazin-1-yl]methanone], for which, in assay [1], the concentration for half-maximal inhibition (IC50) was 1550 nM and the affinity corresponds to a Ki of 894 nM. Besides, the “VR1 (human) (% inhibition compared to 10 μM CP)” value in assay [2] (setting [5]) is 61.74%. The “VR1 (human) (% stimulation compared to 10 μM CP)” value in assay [2] (setting [6]) stood at 0.41%. In assay [3], this compound registered an IC50 of 3340 nM and an inhibition constant (Ki) of 4860 nM. Moreover, the “VR1 (rat) (% inhibition compared to 10 μM CP)” value in assay [4] (setting [5]) came to 91.46%. The “VR1 (rat) (% stimulation compared to 10 μM CP)” value in assay [4] (setting [6]) is 1.05%.

In the case of `CCC(C)(C)C1CCC2(CC1)CC(C(=O)NCc1ccc(NS(C)(=O)=O)c(F)c1)=NO2` (stereo not drawn) [Example 80, N-(3-fluoro-4-(methylsulphonamido)benzyl)-8-tert-pentyl-1-oxa-2-azaspiro[4.5]dec-2-ene-3-carboxamide], the IC50 in assay [1] was determined as 1220 nM; in assay [3], 2870 nM. In addition, the inhibitory constant (Ki) was determined as 341 nM in assay [1] and 2050 nM in assay [3]. In addition, the inhibition at 10 µM in assay [2] (setting [5]) worked out at 42%; in assay [4] (setting [5]), 103%. The activation at 10 µM in assay [2] (setting [6]) is 35%; in assay [4] (setting [6]) it was 48%.

As a reminder, the IC50 is the concentration needed to halve the response being measured. A higher IC50 goes with weaker potency. In general, Ki refers to the dissociation constant of the complex between target and ligand, obtained from inhibition or displacement. Low readings indicate tighter binding, high ones weaker binding. As a reminder, the inhibition is the relative decrease from the control value, in per cent.
